In patent publication US11091428B2 (HAPLOGEN GMBH, priority 2016, dated 2021) one finds IC50 and EC50 data, which are given here for 34 compounds.

A word on the IC50: it is the point on the concentration scale where inhibition reaches its midpoint. A word on the EC50: it is the concentration that produces a half-maximal response.

One experiment concerns the target T1, PLA2G16 (Homo sapiens, UniProt P53816).
T1 construct: Hexa-His (N); made in house; host or cells: E. coli BL21(DE3)
T1 sequence (P53816 1-162): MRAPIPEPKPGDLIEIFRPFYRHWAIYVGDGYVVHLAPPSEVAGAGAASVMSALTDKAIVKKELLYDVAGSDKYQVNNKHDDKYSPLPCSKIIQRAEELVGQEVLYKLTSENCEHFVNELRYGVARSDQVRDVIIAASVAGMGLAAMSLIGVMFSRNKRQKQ
In words: Enzyme activity assay for PLA2G16 (Red/Green BODIPY PC-A2 fluorescence). It is filed as biochemical. The settings on record: His-tagged PLA2G16, 4 min pre-incubation, 2 nM to 50 μM; read-out: IC50 values of the compounds determined in the enzyme activity assay for PLA2G16. In outline: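 IC50 from non-linear fits of fluorescence rise (480/530 nm, 10 min) after adding Red/Green BODIPY PC-A2 mixed with DOPC/DOPG/cholesterol liposomes. Recombinant His-tagged human enzyme, bacterially expressed, was first exposed to inhibitor (2 nM–50 μM final) for 4 min in 50 mM Tris pH 8.5, 100 mM NaCl, 5 mM glutathione.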

Experiment [1] concerns picornaviruses (CVB1, HRV-A2, HRV-A23, EV-68). The experiment in a line: Anti-picornavirus cytopathic effect (CPE) reduction assay on HeLa H1 cells. The experiment is classed as cell-based. The settings on record: Enterovirus B, HeLa H1, 48 h, HeLa H1 cells, 48 h, category from averaging the EC50 values from four picornaviruses (CVB1, HRV-A2, HRV-A23, EV68); read-out: EC50 values of the compounds determined in the anti-picornavirus assay. The gist of the method: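 Cytopathic-effect protection: EC50 from non-linear regression of cell viability (CellTiterBlue, 560/590 nm) 48 h post-infection, scaled between infected and mock-infected vehicle wells. Compound dilutions added to HeLa H1 cells 2 h before virus (MOI causing complete CPE within 2 days), in DMEM + 2% FBS; categories average the four viruses.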
(In general: Protection from cytopathic effect is a common read-out in antiviral testing.)

Molecules are shown by their SMILES.

With `O=C(NCC1CC1)C(=O)C1CCC(=O)N1CC1CCCC1` (centres unmarked) [FP 280, 2-[1-(Cyclopentylmethyl)-5-oxopyrrolidin-2-yl]-N-(cyclopropylmethyl)-2-oxoacetamide], the IC50 at PLA2G16 was below 1 µM. The EC50 in experiment [1] is below 1 µM.
Regarding `CC(C(=O)C(=O)NCc1cccc(Cl)c1)N(C=O)CC1CCCCC1` (centres unmarked) [FP 18, N-[(3-Chlorophenyl)methyl]-3-[N-(cyclohexylmethyl)formamido]-2-oxobutanamide], the IC50 on PLA2G16 is below 1 µM. Also, in experiment [1], the EC50 was below 1 µM.
As to `CC(C(=O)C(=O)NC1CC1)N(C=O)Cc1ccccc1` (centres unmarked) [FP 44, 3-(N-Benzylformamido)-N-cyclopropyl-2-oxobutanamide], at PLA2G16, the IC50 is below 1 µM. Also, the EC50 in experiment [1] was 1 to 10 µM.
As to `COc1ccccc1N(C=O)C(C)C(=O)C(=O)NCc1ccccc1C` (centres unmarked) [FP 98, 3-[N-(2-Methoxyphenyl)formamido]-N-[(2-methylphenyl)methyl]-2-oxobutanamide], at PLA2G16, the IC50 is below 1 µM. For the same compound, the EC50 in experiment [1] is 1 to 10 µM.
Regarding `CC(=O)NCCCCCCCNC(=O)C(=O)C1CCC(=O)N1Cc1ccccc1` (centres unmarked) [FP 326, 2-(1-Benzyl-5-oxopyrrolidin-2-yl)-N-(7-acetamidoheptyl)-2-oxoacetamide], at PLA2G16, the IC50 is below 1 µM. Further, in experiment [1], the 50% effective concentration (EC50) was in the range of 1 to 10 µM.
Taken in the same sequence, the figures for `O=C(NCC1CC1)C(=O)C1CCC(=O)N1Cc1ccc(Cl)cc1` (centres unmarked) [FP 203, 2-{1-[(4-Chlorophenyl)methyl]-5-oxopyrrolidin-2-yl}-N-(cyclopropylmethyl)-2-oxoacetamide] were below 1 µM and below 1 µM.
Taken in the same sequence, the figures for `O=C(NCC1CCCCC1)C(=O)C1CCC(=O)N1CCC1CCOCC1` (centres unmarked) [FP 245, N-(Cyclohexylmethyl)-2-{1-[2-(oxan-4-yl)ethyl]-5-oxopyrrolidin-2-yl}-2-oxoacetamide] were below 1 µM and 1 to 10 µM.
On the same counts, the results for `COc1ccccc1N(C=O)C(C)C(=O)C(=O)NCc1ccc(F)c(Cl)c1` (centres unmarked) [FP 93, N-[(3-Chloro-4-fluorophenyl)methyl]-3-[A (2-methoxyphenyl)formamido]-2-oxobutanamide] are below 1 µM and below 1 µM.
In the case of `CC(C(=O)C(=O)NCc1cccc(Cl)c1)N(C)C=O` (centres unmarked) [FP 69, N-[(3-Chlorophenyl)methyl]-3-(N-methylformamido)-2-oxobutanamide], on PLA2G16, the IC50 is 1 to 10 µM. The EC50 in experiment [1] is above 10 µM.
On the same counts, the results for `O=C(NCC1CCCCC1)C(=O)C1CCC(=O)N1Cc1nccs1` (centres unmarked) [FP 311] are below 1 µM and below 1 µM.
Turning to `O=C(NCC1CC1)C(=O)C1CCC(=O)N1Cc1ccc(F)cc1` (centres unmarked) [FP 241, N-(Cyclopropylmethyl)-2-{1-[(4-fluorophenyl)methyl]-5-oxopyrrolidin-2-yl}-2-oxoacetamide], the half-maximal inhibitory concentration (IC50) on PLA2G16 is below 1 µM. Also, in experiment [1], the 50% effective concentration (EC50) was below 1 µM.
For `Cc1ccccc1S(=O)(=O)NC(C)C(=O)C(=O)NCC1CC1` (centres unmarked) [FP 190, N-(Cyclopropylmethyl)-3-(2-methylbenzenesulfonamido)-2-oxobutanamide], the 50% inhibitory concentration (IC50) at PLA2G16 is below 1 µM. For the same compound, the EC50 in experiment [1] was in the range of 1 to 10 µM.
On the same counts, the results for `CC(NC(=O)c1c(Cl)cccc1Cl)C(=O)C(=O)NCC1CC1` (centres unmarked) [FP 163, N-(Cyclopropylmethyl)-3-[(2,6-dichlorophenyl)formamido]-2-oxobutanamide] are below 1 µM and below 1 µM.
In the case of `CC(C(=O)C(=O)NCCOC1CCCCC1)N(C=O)C1CCCCC1` (centres unmarked) [FP 55, 3-(N-Cyclohexylformamido)-N-[2-(cyclohexyloxy)ethyl]-2-oxobutanamide], the IC50 on PLA2G16 is below 1 µM. Besides, the EC50 in experiment [1] was below 1 µM.
With `C[C@@H]1CC(=O)N(Cc2ccccc2)[C@H]1C(=O)C(=O)NCC1CC1` (single isomer, unassigned) [FP 336], the half-maximal inhibitory concentration (IC50) at PLA2G16 is below 1 µM. The EC50 in experiment [1] was below 1 µM.
On to `O=C(NCC1CC1)C(=O)C1CCC(=O)N1CCc1ccccc1` (centres unmarked) [FP 253, N-(Cyclopropylmethyl)-2-oxo-2-[5-oxo-1-(2-phenylethyl)pyrrolidin-2-yl]], for which the IC50 on PLA2G16 was below 1 µM. Further, in experiment [1], the EC50 was 1 to 10 µM.
As for `COc1ccccc1N(C=O)C(CC(C)C)C(=O)C(=O)NCc1cccc(Cl)c1` (centres unmarked) [FP 13, N-[(3-Chlorophenyl)methyl]-3-[N-(2-methoxyphenyl)formamido]-5-methyl-2-oxohexanamide], on PLA2G16, the IC50 is below 1 µM. Also, the EC50 in experiment [1] is below 1 µM.
With `Cc1noc(CCNC(=O)C(=O)[C@H]2CCC(=O)N2Cc2ccccc2)n1` [FP 293, 2-[(2R)-1-Benzyl-5-oxopyrrolidin-2-yl]-N-[2-(3-methyl-1,2,4-oxadiazol-5-yl)ethyl]-2-oxoacetamide], the IC50 on PLA2G16 is below 1 µM. The EC50 in experiment [1] was in the range of 1 to 10 µM.
For the compound `COc1ccccc1N(C=O)C(C)C(=O)C(=O)NCc1ccccn1` (centres unmarked) [FP 96, 3-[N-(2-Methoxyphenyl)formamido]-2-oxo-N-[(pyridin-2-yl)methyl]butanamide], the IC50 on PLA2G16 was below 1 µM. Also, the EC50 in experiment [1] is above 10 µM.
Taken in the same sequence, the figures for `CC(C)NC(=O)C(=O)[C@H]1CCC(=O)N1Cc1ccccc1` [FP 238, 2-[(2R)-1-Benzyl-5-oxopyrrolidin-2-yl]-2-oxo-N-(propan-2-yl)acetamide] were below 1 µM and below 1 µM.
Taken in the same sequence, the figures for `CCC(NC(=O)c1ccccc1)C(=O)C(=O)NCC1CC1` (centres unmarked) [FP 155, N-(Cyclopropylmethyl)-2-oxo-3-(phenylformamido)pentanamide] were below 1 µM and 1 to 10 µM.
Regarding `CC(C)CNC(=O)C(=O)C(C)NC(=O)c1ccccc1` (centres unmarked) [FP 182, N-(2-Methylpropyl)-2-oxo-3-(phenylformamido)butanamide], the IC50 at PLA2G16 is below 1 µM. Moreover, the EC50 in experiment [1] is above 10 µM.
Taken in the same sequence, the figures for `CC(C(=O)C(=O)NCC1CCCCC1)N(C)C(=O)c1ccccc1` (centres unmarked) [FP 176, N-(Cyclohexylmethyl)-3-(N-methyl-1-phenylformamido)-2-oxobutanamide] were below 1 µM and below 1 µM.
Taken in the same sequence, the figures for `O=C(NCCCc1ccncc1)C(=O)C1CCC(=O)N1Cc1ccccc1` (centres unmarked) [FP 228, 2-(1-Benzyl-5-oxopyrrolidin-2-yl)-2-oxo-N-[3-(pyridin-4-yl)propyl]acetamide] were below 1 µM and 1 to 10 µM.
As for `COc1ccccc1N(C=O)C(C)C(=O)C(=O)NCc1ccncc1` (centres unmarked) [FP 90, 3-[N-(2-Methoxyphenyl)formamido]-2-oxo-N-[(pyridin-4-yl)methyl]butanamide], the IC50 on PLA2G16 is below 1 µM. Moreover, in experiment [1], the EC50 was above 10 µM.
Turning to `CC(NC(=O)c1ccccc1Br)C(=O)C(=O)NCC1CC1` (centres unmarked) [FP 166, 3-[(2-Bromophenyl)formamido]-N-(cyclopropylmethyl)-2-oxobutanamide], on PLA2G16, the IC50 is below 1 µM. The EC50 in experiment [1] was 1 to 10 µM.
In the case of `CC(C)(C)C(=O)N1CCC(NC(=O)C(=O)[C@H]2CCC(=O)N2Cc2ccccc2)CC1` [FP 314, 2-[(2R)-1-Benzyl-5-oxopyrrolidin-2-yl]-N-[1-(2,2-dimethylpropanoyl)piperidin-4-yl]-2-oxoacetamide], the IC50 on PLA2G16 was below 1 µM. Besides, the concentration giving a half-maximal response (EC50) in experiment [1] lay within 1 to 10 µM.
As to `CC(=O)NCCNC(=O)C(=O)C1CCC(=O)N1Cc1ccc(Cl)cc1` (centres unmarked) [FP 243, 2-{1-[(4-Chlorophenyl)methyl]-5-oxopyrrolidin-2-yl}-N-(2-acetamidoethyl)-2-oxoacetamide], on PLA2G16, the IC50 lay in the range of 1 to 10 µM. In addition, in experiment [1], the 50% effective concentration (EC50) was above 10 µM.
With `O=C(NC1CCN(S(=O)(=O)C2CCCC2)CC1)C(=O)[C@H]1CCC(=O)N1Cc1ccccc1` [FP 321, 2-[(2R)-1-Benzyl-5-oxopyrrolidin-2-yl]-N-[1-(cyclopentanesulfonyl)piperidin-4-yl]-2-oxoacetamide], the IC50 on PLA2G16 was below 1 µM. For the same compound, in experiment [1], the EC50 was below 1 µM.
As for `CC(NS(=O)(=O)c1ccc(Cl)cc1)C(=O)C(=O)NCC1CC1` (centres unmarked) [FP 215, 3-(4-Chlorobenzenesulfonamido)-N-(cyclopropylmethyl)-2-oxobutanamide], the half-maximal inhibitory concentration (IC50) on PLA2G16 is below 1 µM. The EC50 in experiment [1] was 1 to 10 µM.
For the compound `CC(C)C(=O)N(C)CCNC(=O)C(=O)[C@H]1CCC(=O)N1Cc1ccccc1` [FP 333, N-(2-{2-[(2R)-1-Benzyl-5-oxopyrrolidin-2-yl]-2-oxoacetamido}ethyl)-N,2-dimethyl-propanamide], the IC50 on PLA2G16 was below 1 µM. For the same compound, in experiment [1], the 50% effective concentration (EC50) is 1 to 10 µM.
On the same counts, the results for `O=C(COCc1ccccc1)C(=O)NCC1CC1` [FP 128, 3-(Benzyloxy)-N-(cyclopropylmethyl)-2-oxopropanamide] are below 1 µM and below 1 µM.
`O=C(NCC1CCOCC1)C(=O)C1CCC(=O)N1Cc1ccc(Cl)cc1` (centres unmarked) [FP 235, 2-{1-[(4-Chlorophenyl)methyl]-5-oxopyrrolidin-2-yl}-N-[(oxan-4-yl)methyl]-2-oxoacetamide]: the IC50 at PLA2G16 is below 1 µM. Also, the EC50 in experiment [1] lay in the range of 1 to 10 µM.
Consider `O=C(NC1CCCC1)C(=O)C1CCC(=O)N1CC1CC1` (centres unmarked) [FP 254, N-Cyclopentyl-2-[1-(cyclopropylmethyl)-5-oxopyrrolidin-2-yl]-2-oxoacetamide], for which the IC50 at PLA2G16 is below 1 µM. Also, the 50% effective concentration (EC50) in experiment [1] is 1 to 10 µM.
